The results in this text go back to patent US5028607A, “Bis(aryl)alkene compounds” (Adir et Compagnie, priority 1989, dated 1991).

Counter-ions that a name gives are not always drawn. Like-named read-outs stand apart in the source and are kept apart here. Bounds are passed on as bounds.

The test system of assay [1] is α1. Nature of the assay: α1 antagonism (inhibition of phenylephrine hypertensive response, pithed rats). In kind it is in vivo, rats (male Sprague-Dawley). The note with it: cumulative doses, phenylephrine 4 g/kg i.v., Tertatolol 100 μg/kg i.v. pretreatment. An excerpt:
α1 antagonism Male Sprague-Dawley rats (300-400 g) which have been subjected to a water diet are anesthetized with ethyl ether. A cannula is placed in the trachea. The spinal cord is destroyed by means of a steel rod and artificial respiration is instituted at once. The vagus nerves are sectioned. The carotid arteries are ligated and a catheter is placed in one of them to record the arterial blood pressure. A second catheter is placed in the vein of the penis and is used for the injections. The animals' temperature is taken and is maintained at 36° C. The rats are pretreated with a β-blocker (Tertatolol 100 μg/kg i.v.). Phenylephrine is injected at a dose of […] i.v. Two identical injections are performed, separated by an interval of 10 minutes. The compounds of the invention are injected at the lowest dose and injection of phenylephrine is performed again 10 minutes later. 3 or 4 cumulative doses of the compounds of the invention are tested in the same manner. The values for the percentage inhibition of the hypertensive response which are obtained at the different doses are calculated in order to determine the ID50.

Assay [2] has as its target T1, 5-HT2 (Rattus norvegicus, UniProt P14842).
T1 construct: from tissue; host or cells: whole anesthetized male Sprague-Dawley rat; vasculature (blood pressure response)
The assay can be described thus: 5-HT2 antagonism (inhibition of 5-hydroxytryptamine hypertensive response, anesthetized rats). The class given is in vivo, rats (male Sprague-Dawley). Particulars: iv, cumulative doses, 5-hydroxytryptamine 100 μg/kg i.v., rats pretreated with d-tubocurarine and prazosin, read-out: ID50, dose inhibiting the hypertensive response by 50%. Here is the method: Male Sprague-Dawley rats (350-400 g) are anesthetized i.p. with pentobarbital (45 mg/kg). The trachea is cannulated and the animals are subjected to artificial respiration. The vagus nerves are sectioned. A catheter is placed in a carotid artery to record the arterial blood pressure. A second catheter is placed in the vein of the penis and is used for the injections. The animals' temperature is taken and is maintained at 37° C. The rats are pretreated with d-tubocurarine (1 mg/kg i.v.) and prazosin (1 mg/kg i.v.). 5-Hydroxytryptamine is injected i.v. at a dose of 100 μg/kg twice, separated by an interval of 10 minutes, so as to determine the rise in the systolic arterial blood pressure of each rat. 10 minutes later, the compounds of the invention are injected at the lowest dose and injection of 5-hydroxytryptamine is performed again 10 minutes later. 3 or 4 cumulative doses of the compounds of the invention are tested in the same manner. The percentages of the hypertensive response which are obtained at the different doses are calculated in order to determine the ID50, the dose inhibiting the hypertensive response by 50%.

The subject of assay [3] is 5-hydroxytryptophan. Nature of the assay: 5-HTP antagonism (symptoms induced by 5-hydroxytryptophan). In kind it is in vivo, rats (female Wistar). Particulars: Rattus norvegicus. Here is the method:
The animals are then placed under observation in transparent cages. Three parameters are assessed in the study: "forepaw treading", "flat body posture" and "head twitches". "Forepaw treading" corresponds to a pedaling motion of the forelimbs. This parameter is measured 80 minutes after the administration of […] and during a 10-minute observation period. […] This parameter is assessed throughout the period of observation of the animals.

Where [4] appears, read: ip, 80 min, compounds intraperitoneally, 5-hydroxytryptophan 320 mg/kg by gavage, scored at 80 minutes, read-out: ED50 FPT (forepaw treading).
Setting [5] is: ip, 1.5 h, read-out: ED50 HT (head twitches).
[6] abbreviates: ip, compounds intraperitoneally, 5-hydroxytryptophan 320 mg/kg by gavage, read-out: ED50 FBP (flat body posture).
Where [7] appears, read: po, 80 min, compounds orally, 5-hydroxytryptophan 320 mg/kg by gavage, scored at 80 minutes, read-out: ED50 FPT (forepaw treading).
[8] abbreviates: po, 1.5 h, read-out: ED50 HT (head twitches).
Where [9] appears, read: po, compounds orally, 5-hydroxytryptophan 320 mg/kg by gavage, read-out: ED50 FBP (flat body posture).
Where [10] appears, read: sc, 80 min, compounds subcutaneously, 5-hydroxytryptophan 320 mg/kg by gavage, scored at 80 minutes, read-out: ED50 FPT (forepaw treading).
[11] abbreviates: sc, compounds subcutaneously, 5-hydroxytryptophan 320 mg/kg by gavage, read-out: ED50 FBP (flat body posture).
[12] abbreviates: sc, 1.5 h, read-out: ED50 HT (head twitches).

T1 sequence (P14842 whole entry): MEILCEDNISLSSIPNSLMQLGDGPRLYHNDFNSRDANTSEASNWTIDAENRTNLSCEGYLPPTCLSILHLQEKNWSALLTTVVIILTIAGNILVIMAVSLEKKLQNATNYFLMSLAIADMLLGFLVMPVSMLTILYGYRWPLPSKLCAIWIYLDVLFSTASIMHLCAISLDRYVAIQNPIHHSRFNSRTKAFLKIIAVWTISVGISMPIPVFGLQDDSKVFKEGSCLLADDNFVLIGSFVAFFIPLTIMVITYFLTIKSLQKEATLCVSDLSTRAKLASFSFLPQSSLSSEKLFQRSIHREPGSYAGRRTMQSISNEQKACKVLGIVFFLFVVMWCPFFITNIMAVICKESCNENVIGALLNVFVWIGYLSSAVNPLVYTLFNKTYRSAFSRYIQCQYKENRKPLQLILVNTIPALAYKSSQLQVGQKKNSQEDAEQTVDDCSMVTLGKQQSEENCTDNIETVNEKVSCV

Turning to `Cc1nc2c(C(N)=O)ncn2c(O)c1CCN1CCC(=C(c2ccc(F)cc2)c2ccc(F)cc2)CC1.Cl` [EXAMPLE 1, 3-{2-[4-[bis(4-fluorophenyl)methylene]piperidino]ethyl}-8-carbamoyl-4-hydroxy-2-methylimidazo [1,5-a]pyrimidine hydrochloride], the “ID50, inhibition of the hypertensive response to phenylephrine” value (“ID50, inhibition” below) in assay [1] is greater than 5 mg/kg. In addition, the ED50 in assay [2] is 0.013 mg/kg; in assay [3] (setting [4]) it was 2.5 mg/kg; in assay [3] (setting [5]) it was 0.63 mg/kg; in assay [3] (setting [6]), 0.08 mg/kg; in assay [3] (setting [7]) it was 10 mg/kg; in assay [3] (setting [8]), greater than 10 mg/kg. The ED50 in assay [3] (setting [9]) was determined as 0.16 mg/kg.

In the case of `Cl.Cl.O=C1CN2Cc3ccccc3CC2C(=O)N1CCN1CCC(=C(c2ccccc2)c2ccc(F)cc2)CC1` (centres unmarked) [EXAMPLE 2, 2-{2-[4-[(4-Fluorophenyl)phenylmethylene]piperidino]ethyl}-1,3,4,6,11,11a-hexahydro-1,3-dioxo-2H-pyrazino[1,2-b]-isoquinoline dihydrochloride], the ED50 was found to be 1.25 mg/kg in assay [3] (setting [4]), 5 mg/kg in assay [3] (setting [5]) and 1.25 mg/kg in assay [3] (setting [6]).

As to `Cc1nc2c(C(N)=O)ncn2c(O)c1CCN1CCC(=C(c2ccccc2)c2ccc(F)cc2)CC1.Cl` [EXAMPLE 3, 8-Carbamoyl-3-{2-[4-[(4-fluorophenyl)phenylmethylene]piperidino]ethyl}-4-hydroxy-2-methylimidazo[1,5-a]-pyrimidine hydrochloride], in assay [1], the “ID50, inhibition” value was greater than 5 mg/kg. In addition, the ED50 in assay [2] was 0.024 mg/kg; in assay [3] (setting [10]), 10 mg/kg; in assay [3] (setting [11]), 10 mg/kg.

For the molecule `Cc1nc2c(C#N)ncn2c(O)c1CCN1CCC(=C(c2ccccc2)c2ccc(F)cc2)CC1.Cl` [EXAMPLE 4, 8-Cyano-3-{2-[4-[(4-fluorophenyl)phenylmethylene]piperidino]ethyl}-4-hydroxy-2-methylimidazo[1,5-a]-pyrimidine hydrochloride], the “ID50, inhibition” value in assay [1] was greater than 5 mg/kg. For the same molecule, the values for the ED50 in assay [3] (setting [7]), in assay [3] (setting [8]) and in assay [3] (setting [9]) were 1.25 mg/kg, 10 mg/kg and 1.25 mg/kg, respectively.

For the molecule `Cl.O=C1CN(Cc2ccccc2F)CC(=O)N1CCCN1CCC(=C(c2ccccc2)c2ccc(F)cc2)CC1` [EXAMPLE 5, 4-(2-Fluorobenzyl)-1-{3-[4-[(4-fluorophenyl)phenylmethylene]piperidino]propyl}-2,6-piperazinedione hydrochloride], the ED50 in assay [2] came to 0.034 mg/kg.

`O=C1CN(Cc2ccccc2F)CC(=O)N1CCCN1CCC(=C2c3ccccc3-c3ccccc32)CC1` [EXAMPLE 6, 1-{3-[4-(9-Fluorenylidenyl)piperidino]propyl}-4-(2-fluorobenzyl)-2,6-piperazinedione hydrochloride]: the results for the ED50 in assay [2], in assay [3] (setting [7]) and in assay [3] (setting [9]) were 0.039 mg/kg, 5 mg/kg and 2.5 mg/kg, respectively.

Take `Fc1ccc(C(=C2CCN(CCCN3CCN(c4ncccn4)CC3)CC2)c2ccc(F)cc2)cc1` [EXAMPLE 7, 1-{3-[4-Bis(4-fluorophenyl)methylene]piperidino]propyl}-4-(2-pyrimidinyl)piperazine dihydrochloride]: the ED50 in assay [3] (setting [10]) was 5 mg/kg; in assay [3] (setting [12]) it was greater than 10 mg/kg; in assay [3] (setting [11]) it was 5 mg/kg.

`O=C1CN(Cc2ccccc2F)CC(=O)N1CCCN1CCC(C=C(c2ccc(F)cc2)c2ccc(F)cc2)C1` (centres unmarked) [EXAMPLE 8, 1-{3-[3-[2,2-bis(4-fluorophenyl)vinylene]-1-pyrrolidinyl]propyl}-4-(2-fluorobenzyl)-2,6-piperazinedione dihydrochloride]: in assay [1], the “ID50, inhibition” value was 5.3 mg/kg.

For `Cc1nc2c(C(N)=O)ncn2c(O)c1CCCN1CCC(=C(c2ccccc2)c2ccc(F)cc2)CC1.Cl` [EXAMPLE 9, 8-Carbamoyl-3-{3-[4-[(4-fluorophenyl)phenylmethylene]piperidino]propyl}-4-hydroxy-2-methylimidazo[1,5-a]-pyrimidine hydrochloride], in assay [1], the “ID50, inhibition” value is greater than 5 mg/kg.

For the molecule `O=C1CN(Cc2ccccn2)CC(=O)N1CCCN1CCC(=C(c2ccccc2)c2ccc(F)cc2)CC1` [EXAMPLE 10, 1-{3-4-(4-Fluorophenyl)phenylmethylene]piperidino]propyl}-4-(2-pyridylmethyl)-2,6-piperazinedione dihydrochloride], the ED50 in assay [2] was 0.0082 mg/kg; in assay [3] (setting [10]), 1.25 mg/kg; in assay [3] (setting [12]), 40 mg/kg; in assay [3] (setting [11]), 0.16 mg/kg.

In the case of `Cc1nc2c(C#N)ncn2c(O)c1CCN1CCC(=C(c2ccc(F)cc2)c2ccc(F)cc2)CC1` [EXAMPLE 11, 3-{2-[4-Bis(4-fluorophenyl)methylene]piperidino]ethyl}-8-cyano-4-hydroxy-2-methylimidazo[1,5-a]-pyrimidine hydrochloride], in assay [1], the “ID50, inhibition” value was greater than 5 mg/kg. In addition, the ED50 amounted to 5 mg/kg in assay [3] (setting [7]), 10 mg/kg in assay [3] (setting [8]) and 1.25 mg/kg in assay [3] (setting [9]).

For the molecule `Cc1ccc(C(=C2CCN(CCc3c(C)nc4c(C(N)=O)ncn4c3O)CC2)c2ccccc2)cc1.Cl` [EXAMPLE 13, 8-Carbamoyl-4-hydroxy-3-{2-[4-[(4-methylphenyl)-phenylmethylene]piperidino]ethyl}-2-methylimidazo[1,5-a]-pyrimidine hydrochloride], the “ID50, inhibition” value in assay [1] is 3.05 mg/kg. Further, in assay [2], the ED50 came out at 0.027 mg/kg.

As to `Cc1nc2c(C(N)=O)ncn2c(O)c1CCN1CCCC(C=C(c2ccc(F)cc2)c2ccc(F)cc2)C1` (centres unmarked) [EXAMPLE 23, 3-{2-[3-[2,2-Bis(4-fluorophenyl)vinylene]piperidino]ethyl}-8-carbamoyl-4-hydroxy-2-methylimidazo[1,5-a]-pyrimidinehydrochloride], the “ID50, inhibition” value in assay [1] is greater than 5 mg/kg.

With `Cc1nc2c(C(N)=O)ncn2c(O)c1CCN1CCC(C=C(c2ccc(F)cc2)c2ccc(F)cc2)C1` (centres unmarked) [EXAMPLE 24, 3-(3-4-2,2-Bis(4-fluorophenyl)vinyl]pyrrolidino]ethyl}-8-carbamoyl-4-hydroxy-2-methylimidazo[1,5-a]-pyrimidine hydrochloride], the “ID50, inhibition” value in assay [1] was greater than 5 mg/kg.

Regarding `O=c1[nH]c2ccccc2c(=O)n1CCN1CCCC(=C(c2ccc(F)cc2)c2ccc(F)cc2)CC1` [EXAMPLE 25, 3-{2-[4-[Bis(4-fluorophenyllmethylene]perhydroazepin-1-yl]ethyl}-2,4-dioxo-1,2,3,4-tetrahydrocuinazoline hydrochloride], the “ID50, inhibition” value in assay [1] is 3.05 mg/kg.
